US20260000351A1, “NON-INVASIVE METHODS OF MEASURING THE DEGREE OF CELLULAR ENERGY METABOLISM” (AMAZON TECHNOLOGIES, INC., priority 2023, published 2026)

Assays:
Type in all cases: cell-based
[1] = tested on: Jurkat T cells; test: Radio frequency monitoring device measurement at 64 MHz in Jurkat T cell suspensions (Example 5); settings: for net change in radio frequency magnitude (plain medium subtracted as background): 64 MHz
Method: The degree of cellular energy metabolism was monitored by radio frequency in Jurkat T cell suspensions to compare to direct intracellular ATP measurement of Example 4. Jurkat T cell suspensions were maintained as in Example 4. A radio frequency monitoring device was placed in the cell culture and monitored at 64 MHz frequency as a function of time. Cells were stimulated by addition of (a) D-glucose (180 mg/dl final concentration in DMEM), (b) 2-deoxy-D-glucose (2DG, 180 mg/dl final concentration in DMEM), (c) D-glucose (180 mg/dl final concentration) and BAY-876 (a glucose transporter 1 inhibitor, 5 μM final concentration), and (d) DMEM with low D-glucose (5.5 mM, 100 mg/dl, ‘plain medium’). All stimulations were conducted with the same volume of liquid.

[2] = tested on: Jurkat T cells; test: Radio frequency sensor device measurement of cellular energy metabolism in Jurkat T cell suspension (Example 1); settings: for radio frequency peak in magnitude at 64 MHz: final concentration 200 mg/dl in low D-glucose DMEM, about 8 h
Method: Jurkat T cells were obtained from American Type Culture Collection (ATCC) (#TIB-152) and maintained in high D-Glucose Dulbecco's Modified Eagle Medium (DMEM) (THERMO FISHER SCIENTIFIC INC., #10565042, 17.5 mM/315 mg/dl D-glucose) supplemented with 10% fetal bovine serum (FBS, THERMO FISHER SCIENTIFIC INC., #16140071), penicillin/streptomycin (Pen/Strep), beta-Mercaptoethanol (b-ME) in a 37° C. humidified incubator, 5% CO2. At time point 0:00 (hr.: min.), Jurkat T cells (3×10^9) were suspended in three separate solutions of low D-glucose DMEM (THERMO FISHER SCIENTIFIC INC., #10565042, 5.5 mM (100 mg/dl D-glucose) supplemented with fetal bovine serum (10% v/v, THERMO FISHER SCIENTIFIC INC. #16140071), penicillin/streptomycin (Pen/Strep), beta-mercaptoethanol (20 ml of media, 5×10^7 cells per mL each) in tissue culture dishes (10 cm). The cell suspension was placed in an incubator at 37° C. at maximum humidity, carbon dioxide concentration of 5%. Cells were mixed continuously on an orbital shaker (60 rpm). Following 60 minutes of incubation for equilibration, a sensor device of this disclosure was placed in each solution. To the resulting solutions were added 200 μl of media containing 100× D-glucose (e.g., to a final concentration of 200 mg/dl), control media (identical media, but containing low D-glucose (5.5 mM, 100 mg/dl)), and media containing 100× 2-deoxy-D-glucose (identical media, but replacing D-glucose with 2-deoxy-D-glucose at a final concentration of e.g., 200 mg/dl). The radio frequency was detected at 64MHz with the sensor device over the course of approximately 8 h.

[3] = tested on: Jurkat T cells; test: Luciferase-based assay of intracellular ATP concentration (CELLTITER-GLO 2.0); settings: D-glucose 15.5 mM (280 mg/dl final) versus low D-glucose 5.5 mM
Method: Intracellular ATP concentrations were assessed using a luciferase-based assay to determine the rate of ATP production following addition of glucose. Jurkat T cells (1×10^7 cells per well in low D-glucose DMEM (100 μl, 5.5 mM, 100 mg/dl D-glucose)) were aliquoted into flat-bottom 96-well plates. Cells were stimulated with DMEM either containing D-glucose (15.5 mM, 280 mg/dl final solution) or low D-glucose (5.5 mM, 100 mg/dl), an effective difference of 10 mM (180 mg/dl) glucose, at time point 0 min. Cells were quantitatively removed from the incubation plate. An aliquot of cell suspension (50 μl) was transferred onto frozen CELLTITER-GLO® 2.0 (PROMEGA CO.) assay reagent on dry ice. The resulting mixture was thawed, and the ATP concentration measured via light emission in a 96-well plate-compatible luminometer. The resulting curve of luciferase activity in relative luminescence units (RLUs) over time (min. following stimulation) is shown in FIG. 7. […] Glucose transport is rapid as indicated by the rapid increase of ATP concentration following addition of D-glucose.

[4] = 180 mg/dl final concentration in DMEM

Q: How did the “magnitude at 64 MHz over time (curve shape)” value (from here on “magnitude at 64 MHz over time”) ([1]; BAY-876 5 μM final with D-glucose 180 mg/dl final) turn out when `Cc1c(NC(=O)c2cc(C(N)=O)nc3cc(F)ccc23)c(C(F)(F)F)nn1Cc1ccc(C#N)cc1` [BAY-876] was run?
A: a smooth decline becoming linear over time

Q: Which “magnitude at 64 MHz over time” value [1, 4] does the source give for `O=CC[C@@H](O)[C@H](O)[C@H](O)CO` [2-deoxy-D-glucose] here?
A: an initial peak, similar to D-glucose, the magnitude at 64 MHz quickly adopts a similar linear decline

Q: And the “net change in radio frequency magnitude (plain medium subtracted as background)” value [1, 4]?
A: only an initial net increase

Q: And the “radio frequency peak in magnitude at 64 MHz” value [2]?
A: no detectable peak

Q: For `O=C[C@H](O)[C@@H](O)[C@H](O)[C@H](O)CO` [D-glucose], which “magnitude at 64 MHz over time” value [1, 4] is on record?
A: both a peak shortly after addition of stimulus, and a more gradual decline

Q: And the “net change in radio frequency magnitude (plain medium subtracted as background)” value [1, 4]?
A: an initial net increase in magnitude followed by a slow net decrease

Q: What about the “time of apex of radio frequency peak” value ([2]; D-glucose 200 mg/dl final) of the same compound?
A: approximately 4 h

Q: And the “radio frequency peak in magnitude at 64 MHz” value [2]?
A: a broad peak was observed

Q: And the “difference in luminescence (net ATP concentration) over time” value [3]?
A: an increase in net ATP concentration followed by a slower decrease in net ATP concentration
